The text below walks through data of paper PMC3962490, “The Yeast Ess1 Prolyl Isomerase Controls Swi6 and Whi5 Nuclear Localization” (G3: Genes|Genomes|Genetics, 2014).

The experiment has as its target T1, Recombinant S. cerevisiae Ess1 protein (Saccharomyces cerevisiae, UniProt P22696).
T1 construct: made in house; host or cells: Escherichia coli
T1 sequence (P22696 1-170): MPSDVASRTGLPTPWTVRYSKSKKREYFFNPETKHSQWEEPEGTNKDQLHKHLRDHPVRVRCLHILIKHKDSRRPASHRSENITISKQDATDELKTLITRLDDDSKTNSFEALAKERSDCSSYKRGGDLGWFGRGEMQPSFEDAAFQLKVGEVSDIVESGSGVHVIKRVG
Put plainly: Biolayer interferometry (BLI) kinetic assays of Ess1/peptide binding. As to conditions: for Ess1 binding (in words) / Kd / kon: BLI; for Ess1 binding (in words): Ess1 3, 10, 30 μM, Figure 6, S1, S3; for kon: slope of kobs vs Ess1 concentration (Fig. S2), read-out: ka (association rate); for koff: read-out: kd (dissociation rate). As to the method: Biolayer interferometry (BLI) was measured at 24° with an Octet RED system (FortéBio), essentially as described ([Shah and Duncan 2013]; [Shah et al. 2013]). Peptides were synthesized with N-terminal biotinylation (NEOBioLab). Phosphoserine residues were incorporated during synthesis and all peptides were purified to >95% purity by high-performance liquid chromatography (NEOBioLab). Each peptide included 4-6 N-terminal residues (typically [Gly-Gly-Ser]2) as a flexible linker to facilitate binding of Ess1 protein to the surface-immobilized peptide. BLI assays were carried out in 20 mM Tris-HCl pH 8.0, 1 mg/mL bovine serum albumin (Sigma-Aldrich; A6003-10G). Different peptides were immobilized on separate streptavidin-coated biosensors (FortéBio; cat. no. 18-5019). For each peptide sequence, sensors loaded with phosphorylated or unphosphorylated peptides were assayed in parallel, and the peptide concentrations (50−200 nM) and time of loading were controlled to achieve essentially the same level of peptide signal loaded, regardless of phosphorylation status (e.g., Figure S1). Recombinant S. cerevisiae Ess1 protein was purified from Escherichia coli as described ([Li et al. 2005]). Ess1 was incubated with peptide-loaded and control (no peptide) biosensors to measure kinetics of Ess1/peptide association, and sensors were moved to buffer alone to measure dissociation kinetics. To correct for low but significant nonspecific binding of Ess1 to sensors, data from a sensor without peptide within the same experiment were subtracted for each concentration of Ess1 used. For direct comparison of Ess1 binding to different peptides (Figure 6), signals were normalized for the levels of sensor-loaded peptide (0.2−0.5 nm) between sequential runs within the experiment. Data were analyzed using FortéBio Data Analysis software (Versions 6.4), and by linear and nonlinear regression in Prism (GraphPad, version 4).
To determine whether Ess1 interacts directly with Swi6 and Whi5, we conducted binding assays by using purified Ess1 protein and phospho-Ser-Pro or Ser-Pro peptides corresponding to the NLS motif of Swi6 and both NLS and NES motifs of Whi5. Binding was assayed using BLI ([Shah and Duncan 2013]). In brief, biotinylated peptides corresponding to the NLS or NES motifs were immobilized on streptavidin-coated sensors and binding of purified Ess1 protein was measured using BLI. Ess1 protein binding to immobilized peptide changes the optical interference at the sensor surface, measured as nm of spectral shift. Using this approach, we monitored the kinetics of binding and dissociation of Ess1. […] Binding was dependent on Ess1 concentration (3, 10, and 30 μM were used).
Figure 6 In vitro binding of Ess1 to Swi6 and Whi5 peptides. Kinetics for binding and dissociation of purified Ess1 protein with NLS and NES peptides were monitored using biolayer interferometry (BLI). Sensor-immobilized peptides: (A) carboxy-terminal domain (CTD) of RNA polymerase II (RNAPII), (B) Swi6-NLS, (C) Whi5-NLS, and (D) Whi5-NES. Data for phosphorylated peptides (P) are shown in black, unphosphorylated peptides (Un) in blue, and fitting curves are shown in red. Biotinylated peptides were loaded on individual streptavidin sensors, followed by a wash to remove unbound peptide. To measure Ess1 binding, sensors were transferred from buffer alone to buffer containing 3, 10, or 30 μM Ess1 protein (time zero) as indicated. After 300 sec, sensors were transferred to fresh buffer (without Ess1) to monitor Ess1 dissociation. Examples of raw data for these experiments, including the peptide-loading step and control sensors with no peptide are shown in Figure S1.
Table S4 Fitting Results for BLI Kinetic Assays
Peptide ka (M-1s-1) ±SD kd (s-1) ±SD %Rmax ±SD
Summary of results for fitting curves of BLI kinetic data (Fig. 6). The dissociation rate (kd) is an average (±standard deviation
(SD)) for fits at 3 concentrations of each peptide (3, 10, 30 µM). […]
On the technique in general: BLI is a label-free optical method that tracks binding on a fibre tip over time.

Where [1] appears, read: estimated from binding isotherm F = E/(E + Kapp) with signal at 30 μM Ess1 relative to saturated signal of the cognate phosphorylated peptide, read-out: Kapp (estimated, unphosphorylated peptides).
The mark [2] stands for this setting: 24°, 20 mM Tris-HCl pH 8.0, 1 mg/mL BSA, plateau binding responses vs Ess1 concentration (3, 10, 30 μM) fit to hyperbolic binding isotherm, read-out: KappEq (Equilibrium).

Where two headings read alike, the source gives them in different places. Non-standard residues stand in square brackets, D forms with d. Residues, ends and D or L forms follow the SMILES beside them. *: point of attachment. Biotin = O=C1N[C@H]2[C@H](CS[C@H]2CCCCC(=O)*)N1; pS = N[C@@H](COP(=O)(O)O)C(=O)O

For `C[C@@H](O)[C@H](NC(=O)[C@@H]1CCCN1C(=O)[C@H](CO)NC(=O)[C@H](Cc1ccc(O)cc1)NC(=O)[C@H](CO)NC(=O)CNC(=O)CNC(=O)[C@H](CO)NC(=O)CNC(=O)CNC(=O)CCCC[C@@H]1SC[C@@H]2NC(=O)N[C@@H]21)C(=O)N[C@@H](CO)C(=O)N1CCC[C@H]1C(=O)N[C@@H](CO)C(=O)N[C@@H](Cc1ccc(O)cc1)C(=O)N[C@@H](CO)C(=O)O` [CTD, reference compound] (Biotin-GGSGGSYSPTSPSYS-OH; N-terminus and C-terminus assumed), the “Ess1 binding (in words)” value is reported as “very little binding”. Also, under setting [1], the Kd is more than 300 µM.

In the case of `CC(C)C[C@H](NC(=O)[C@H](CCCNC(=N)N)NC(=O)[C@@H]1CCCN1C(=O)[C@H](COP(=O)(O)O)NC(=O)[C@@H]1CCCN1C(=O)[C@H](COP(=O)(O)O)NC(=O)[C@H](CC(C)C)NC(=O)[C@H](Cc1ccccc1)NC(=O)CNC(=O)CNC(=O)[C@H](CO)NC(=O)CNC(=O)CN)C(=O)N[C@@H](CCCNC(=N)N)C(=O)N[C@@H](COP(=O)(O)O)C(=O)N1CCC[C@H]1C(=O)N1CCC[C@H]1C(=O)N[C@H](C(=O)O)[C@@H](C)O` [Whi5-NES-P] (H-GGSGGFL[pS]P[pS]PRLR[pS]PPT-OH), the kon was 17500 M⁻¹ s⁻¹ and the koff was determined as 0.0503 s⁻¹. Also, the Kd under setting [2] was found to be 1.13 ± 0.18 µM.

For the molecule “H3 aa1-21 (Ser10-P): "nonsubstrate" peptide (H3 aa1-21) in the phosphorylated form (Ser10-P) [reference compound]”, the “Ess1 binding (in words)” value was “did not bind”.

Regarding “H3 aa1-21 unphosphorylated: "nonsubstrate" peptide (H3 aa1-21) in the unphosphorylated form [reference compound]”, the “Ess1 binding (in words)” value is “did not bind”.

Turning to `CC(C)C[C@H](NC(=O)[C@H](CCCNC(=N)N)NC(=O)[C@@H]1CCCN1C(=O)[C@H](CO)NC(=O)[C@@H]1CCCN1C(=O)[C@H](CO)NC(=O)[C@H](CC(C)C)NC(=O)[C@H](Cc1ccccc1)NC(=O)CNC(=O)CNC(=O)[C@H](CO)NC(=O)CNC(=O)CNC(=O)CCCC[C@@H]1SC[C@@H]2NC(=O)N[C@@H]21)C(=O)N[C@@H](CCCNC(=N)N)C(=O)N[C@@H](CO)C(=O)N1CCC[C@H]1C(=O)N1CCC[C@H]1C(=O)N[C@H](C(=O)O)[C@@H](C)O` [Whi5-NES] (Biotin-GGSGGFLSPSPRLRSPPT-OH; N-terminus and C-terminus assumed), the Kd under setting [1] was more than 1500 µM.

For the molecule `CC[C@H](C)[C@H](NC(=O)CNC(=O)[C@@H]1CCCN1C(=O)[C@@H]1CCCN1C(=O)[C@H](COP(=O)(O)O)NC(=O)[C@@H]1CCCN1C(=O)[C@@H]1CCCN1C(=O)[C@H](COP(=O)(O)O)NC(=O)[C@@H]1CCCN1C(=O)[C@@H](NC(=O)CNC(=O)CNC(=O)[C@H](CO)NC(=O)CNC(=O)CN)[C@@H](C)O)C(=O)O` [Whi5-NLS-P] (H-GGSGGTP[pS]PP[pS]PPGI-OH), the kon is 22800 M⁻¹ s⁻¹ and the koff was 0.0722 s⁻¹. Besides, the Kd under setting [2] is 0.48 ± 0.46 µM.

With `C[C@@H](O)[C@H](NC(=O)[C@@H]1CCCN1C(=O)[C@H](CO)NC(=O)[C@H](Cc1ccc(O)cc1)NC(=O)[C@H](CO)NC(=O)CNC(=O)CNC(=O)[C@H](CO)NC(=O)CNC(=O)CN)C(=O)N[C@@H](COP(=O)(O)O)C(=O)N1CCC[C@H]1C(=O)N[C@@H](CO)C(=O)N[C@@H](Cc1ccc(O)cc1)C(=O)N[C@@H](CO)C(=O)O` [CTD-P, reference compound] (H-GGSGGSYSPT[pS]PSYS-OH), the kon was 27100 M⁻¹ s⁻¹ and the koff came out at 0.0923 s⁻¹. Moreover, the Kd under setting [2] came out at 1.65 ± 0.06 µM.

On to `CC(C)C[C@H](NC(=O)[C@H](CCC(=O)O)NC(=O)[C@H](CCCNC(=N)N)NC(=O)[C@H](CO)NC(=O)CNC(=O)CNC(=O)[C@H](CO)NC(=O)CNC(=O)CNC(=O)CCCC[C@@H]1SC[C@@H]2NC(=O)N[C@@H]21)C(=O)NCC(=O)N[C@@H](CO)C(=O)N1CCC[C@H]1C(=O)N[C@@H](CC(C)C)C(=O)N[C@@H](CCCCN)C(=O)N[C@@H](CCCCN)C(=O)O` [Swi6-NLS] (Biotin-GGSGGSRELGSPLKK-OH; N-terminus and C-terminus assumed), for which the Kd under setting [1] is more than 100 µM.

Consider `CC[C@H](C)[C@H](NC(=O)CNC(=O)[C@@H]1CCCN1C(=O)[C@@H]1CCCN1C(=O)[C@H](CO)NC(=O)[C@@H]1CCCN1C(=O)[C@@H]1CCCN1C(=O)[C@H](CO)NC(=O)[C@@H]1CCCN1C(=O)[C@@H](NC(=O)CNC(=O)CNC(=O)[C@H](CO)NC(=O)CNC(=O)CNC(=O)CCCC[C@@H]1SC[C@@H]2NC(=O)N[C@@H]21)[C@@H](C)O)C(=O)O` [Whi5-NLS] (Biotin-GGSGGTPSPPSPPGI-OH; N-terminus and C-terminus assumed), for which the Kd under setting [1] is more than 25 µM.

As for `CC(C)C[C@H](NC(=O)[C@H](CCC(=O)O)NC(=O)[C@H](CCCNC(=N)N)NC(=O)[C@H](CO)NC(=O)CNC(=O)CNC(=O)[C@H](CO)NC(=O)CNC(=O)CN)C(=O)NCC(=O)N[C@@H](COP(=O)(O)O)C(=O)N1CCC[C@H]1C(=O)N[C@@H](CC(C)C)C(=O)N[C@@H](CCCCN)C(=O)N[C@@H](CCCCN)C(=O)O` [Swi6-NLS-P] (H-GGSGGSRELG[pS]PLKK-OH), the kon was 25100 M⁻¹ s⁻¹ and the koff turned out to be 0.254 s⁻¹. Also, the Kd under setting [2] is 10.1 ± 5.1 µM.
